# “And” between values parts separate entries of the source, which are not always exact repeats. Identical values can stand only once. “Also recorded” adds a separate entry of the source. Like-named read-outs stand apart in the source and are kept apart here.
# What was measured:
# human MTAP = molecular target: T1, human MTAP (Homo sapiens, UniProt Q13126); experiment: Inhibition assays of HsMTAP; format: biochemical
# T1 sequence (Q13126 1-283): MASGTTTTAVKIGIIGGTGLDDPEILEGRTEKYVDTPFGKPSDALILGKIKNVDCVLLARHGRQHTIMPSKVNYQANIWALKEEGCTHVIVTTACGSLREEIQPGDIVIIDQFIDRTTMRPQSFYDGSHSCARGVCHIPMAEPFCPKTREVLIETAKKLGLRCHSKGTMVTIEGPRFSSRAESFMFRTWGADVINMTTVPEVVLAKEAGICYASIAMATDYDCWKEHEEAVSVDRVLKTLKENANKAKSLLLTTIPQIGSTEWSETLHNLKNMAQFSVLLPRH
# Experimental: (§1) Enzymatic assays. […] Deaminase activity on guanosine was measured at 260 nm with an extinction coefficient of 3.9 mM^−1cm^−1 (18). […] The extinction coefficient is 15.5 mM^−1cm^−1 at 305 nm. Reactions of deaminase were carried out at 25° C. in 1 cm cuvettes. Assay mixtures of 1 mL contained 50 mM Hepes, pH 7.4, 100 mM NaCl, 100 μg/mL BSA, variable concentrations of substrate, and appropriate amounts of purified PaMTADA. Reactions were initiated by addition of enzyme and the initial rates were monitored with a CARY 300 UV-Visible spectrophotometer. Control rates (no PaMTADA) were subtracted from initial rates. Kinetic parameters of PaMTADA were obtained by fitting initial rates to the Michaelis-Menten equation using GraFit 5 (Erithacus Software).
# (§2) Inhibition assays. […] Controls having no enzyme and no inhibitor were included in all of the inhibition assays. The inhibition constant was obtained by fitting initial rates with variable inhibitor concentrations to equation (1) using GraFit 5 (Erithacus Software): […]
# (§3) The inhibitor concentration was corrected using equation (2) when it was less than 10 times of the enzyme concentration (20): […]
# E. coli MTAN = E. coli MTAN (Escherichia coli, UniProt P0AF12); experiment: Inhibition assays of EcMTAN; format: biochemical
# PaMTADA [1] = molecular target: T2, PaMTADA (Pseudomonas aeruginosa, UniProt Q9HZ64); experiment: Inhibition of PaMTADA activity in P. aeruginosa cell lysates ([8-14C]MTA degradation); format: biochemical, Pseudomonas aeruginosa PAO1
# T2 sequence (Q9HZ64 1-444): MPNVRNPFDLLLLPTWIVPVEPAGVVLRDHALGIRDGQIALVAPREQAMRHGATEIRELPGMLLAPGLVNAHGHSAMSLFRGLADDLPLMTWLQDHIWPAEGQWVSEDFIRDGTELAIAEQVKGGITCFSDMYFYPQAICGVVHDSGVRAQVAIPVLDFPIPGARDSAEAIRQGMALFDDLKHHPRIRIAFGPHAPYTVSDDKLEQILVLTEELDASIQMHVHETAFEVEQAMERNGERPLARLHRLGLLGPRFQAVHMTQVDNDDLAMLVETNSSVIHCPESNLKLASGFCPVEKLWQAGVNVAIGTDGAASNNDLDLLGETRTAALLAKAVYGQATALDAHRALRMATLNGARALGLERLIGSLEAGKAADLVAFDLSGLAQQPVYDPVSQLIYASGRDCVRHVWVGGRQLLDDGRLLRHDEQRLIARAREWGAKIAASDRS
# Experimental: (§4) Inhibition of cellular PaMTADA activity. Inhibition of PaMTADA activity in cell lysates was carried out as follows. P. aeruginosa PAO1 (ATCC number: 15692) was grown at 37° C. to stationary phase in LB medium for 16 hours. Cells were collected by centrifugation at 16,100 g and washed three times with 100 mM phosphate, pH 7.4. Cells were lysed using BugBuster reagent (Novagen). […] Reaction mixtures were quenched with perchloric acid (1.8 M final concentration) and neutralized with potassium hydroxide. Precipitates were removed by centrifugation and carrier hypoxanthine, adenine, MTI, and MTA were added to the supernatant. Separation of the metabolites was carried out on a C18 Luna HPLC column (Phenomenex) with a gradient of 5 to 52.8% acetonitrile in 20 mM triethylamine acetate, pH 5.2. The UV absorbance at 260 nm was monitored. […] Fractions were collected in scintillation vials, dried, reconstituted in 200 μL deionized water prior to addition of 10 mL ULTIMA GOLD LSC-Cocktail scintillation fluid. The cpm of ^14C was counted at 20 min per cycle for three cycles using a Tri-Carb 2910TR liquid scintillation analyzer. Cell lysate was replaced by lysis buffer in reaction mixtures in control experiments. […] All other procedures were the same as described above.
# (§5) [formula] where y is the percentage of degraded MTA at certain [I] […] Results and Discussion
# Inhibition of cellular PaMTADA activity. […]
# PaMTADA [2] = molecular target: T2, PaMTADA; experiment: Inhibition of cellular PaMTADA activity, MTCF added to LB medium during growth; format: cell-based, Pseudomonas aeruginosa PAO1
# Experimental: as §4, §5
# (§6) Two hypotheses were considered for this activity. […] Second, the residual activity might arise from diffusional release of the inhibitor during the dilution (and incubation) of a small volume of cell extract into the larger volume of lysis buffer and other incubation buffer.
# P. aeruginosa PAO1 = experiment: Growth of P. aeruginosa PAO1 with or without MTCF (OD600); format: cell-based, Pseudomonas aeruginosa PAO1; settings: up to 1 μM, 36 hours at 37° C.
# Experimental: as §6
# [3] = molecular target: T3, human MTA phosphorylase (MTAP) (Homo sapiens, UniProt Q13126); experiment: Degradation of MTCF by human MTA phosphorylase; format: biochemical
# T3 sequence (Q13126 1-283): T1 sequence (Q13126 1-283)
# Experimental: as §1
# (§7) MTCF was examined to test if it might be metabolized by other enzymes related to MTA metabolism, namely by human MTA phosphorylase (MTAP) and E. coli MTA nucleosidase (MTAN).
# [4] = molecular target: E. coli MTA nucleosidase (MTAN) (Escherichia coli, UniProt P0AF12); experiment: Degradation of MTCF by E. coli MTA nucleosidase; format: biochemical
# Experimental: as §1, §7
# Human ADA [5] = molecular target: T4, Human ADA (Homo sapiens, UniProt P00813); settings: cited from earlier work; for Ki: equilibrium dissociation constant, from Tyler et al. (15); for inhibitory effect on human ADA: result in words
# T4 sequence (P00813 1-363): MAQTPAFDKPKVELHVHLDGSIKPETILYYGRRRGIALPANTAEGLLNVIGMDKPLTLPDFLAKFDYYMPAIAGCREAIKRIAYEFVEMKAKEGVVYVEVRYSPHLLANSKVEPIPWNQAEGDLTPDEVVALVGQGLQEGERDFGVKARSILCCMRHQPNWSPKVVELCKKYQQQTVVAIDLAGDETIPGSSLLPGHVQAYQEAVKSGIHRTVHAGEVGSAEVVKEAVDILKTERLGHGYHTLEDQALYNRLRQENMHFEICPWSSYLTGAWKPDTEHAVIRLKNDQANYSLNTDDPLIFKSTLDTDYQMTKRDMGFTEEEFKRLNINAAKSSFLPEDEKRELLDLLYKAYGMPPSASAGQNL
# PaMTADA [6] = molecular target: T2, PaMTADA; experiment: Inhibition assays for PaMTADA; format: biochemical
# Excerpt: as §2, §3
# PfADA [7] = molecular target: T5, PfADA (Plasmodium falciparum, UniProt Q8IJA9); settings: cited from earlier work
# T5 sequence (Q8IJA9 1-367): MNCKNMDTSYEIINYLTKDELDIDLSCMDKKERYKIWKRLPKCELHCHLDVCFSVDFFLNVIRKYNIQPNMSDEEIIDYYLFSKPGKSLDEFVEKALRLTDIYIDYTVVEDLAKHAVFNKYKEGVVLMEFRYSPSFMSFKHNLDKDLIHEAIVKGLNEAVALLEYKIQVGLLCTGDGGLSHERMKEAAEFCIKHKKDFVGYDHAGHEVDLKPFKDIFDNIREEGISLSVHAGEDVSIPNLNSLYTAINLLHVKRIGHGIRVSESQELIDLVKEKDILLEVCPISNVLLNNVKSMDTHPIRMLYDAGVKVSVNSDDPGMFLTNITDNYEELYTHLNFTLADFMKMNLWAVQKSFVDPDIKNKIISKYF
# PaMTADA [8] = molecular target: T2, PaMTADA; experiment: Deaminase activity of PaMTADA on substrates (enzymatic assays); format: biochemical; settings: for deaminase activity on substrate: PaMTADA (recombinant PA3170), result in words
# Experimental: as §1
# PfADA [9] = molecular target: T5, PfADA; experiment: PfADA inhibition, Ki values from Tyler et al.; format: biochemical; settings: times weaker than CF
# Human ADA [10] = molecular target: T4, Human ADA; settings: substrate, from Tyler et al. (15); cited from earlier work
# [11] = system: CC(O)[C@H]1O[C@@H](n2cnc3c(N)ncnc32)[C@H](S)[C@@H]1O; experiment: purified protein, by the assay type; settings: other: PaMTADA, substrate, 25° C., pH 7.4
# [12] = equilibrium dissociation constant, from Tyler et al. (15), read-out: PfADA Ki
# [13] = PaMTADA, substrate, 25° C., pH 7.4
# E. coli MTA nucleosidase (MTAN), sequence (P0AF12 whole entry): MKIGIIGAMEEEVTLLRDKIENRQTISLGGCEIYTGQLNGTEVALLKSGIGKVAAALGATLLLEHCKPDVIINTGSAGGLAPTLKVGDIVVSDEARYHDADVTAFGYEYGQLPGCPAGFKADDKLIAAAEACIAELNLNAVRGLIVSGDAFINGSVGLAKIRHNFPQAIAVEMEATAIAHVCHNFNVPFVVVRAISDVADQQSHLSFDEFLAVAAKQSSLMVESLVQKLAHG
# E. coli MTAN, sequence (P0AF12 whole entry): as above
molecule,measurement,setting,value
"CSC[C@H]1O[C@@H](n2cnc3c2N=CNC[C@H]3O)[C@H](O)[C@@H]1O [MTCF, 5′-methylthiocoformycin]",Ki,human MTAP,3000 nM
same,inhibition of human MTA phosphorylase,human MTAP; result in words,no significant inhibition; also recorded: no significant inhibitory effects
same,Ki,E. coli MTAN,> 5000 nM
same,degradation of MTA,PaMTADA [1]; 50 nM inhibitor in cell lysate,completely blocked
same,IC50,"PaMTADA [1]; MTCF added to P. aeruginosa cell lysate, [8-14C]MTA degradation, 20 min",4 nM
same,concentration at which maximal inhibition was achieved,PaMTADA [2]; MTCF in LB medium,10 nM
same,IC50,"PaMTADA [2]; MTCF in LB medium during growth, corrected for residual activity",3 nM
same,PaMTADA activity,"PaMTADA [2]; cells grown with 500 nM MTCF in LB, 100 nM MTCF added to cell lysate",All PaMTADA activity was inhibited
same,permeability to P. aeruginosa cells,PaMTADA [2]; inferred from inhibition after growth in MTCF-containing LB,permeable
same,effect on cell growth,P. aeruginosa PAO1,no effect
same,"degradation of MTCF, kobs",[3],< 0.001 s⁻¹
same,"degradation of MTCF, kobs",[4],< 0.001 s⁻¹
same,Ki,Human ADA [5],> 10000 nM
same,inhibitory effect on human ADA,Human ADA [5],no significant inhibition; also recorded: no significant inhibitory effects
"O[C@@H]1CNC=Nc2c1ncn2[C@H]1C[C@H](O)[C@@H](CSc2ccccc2)O1 [PhTDCF, 5′-phenylthio-2′-deoxycoformycin]",Ki,"PaMTADA [6]; 25° C., pH 7.4, 100 μM MTA, read-out: PaMTADA Ki / dissociation constant",0.13 nM
same,Ki,PfADA [7]; [12],60 nM
"Nc1ncnc2c1ncn2[C@@H]1O[C@H](CSCC[C@H](N)C(=O)O)[C@@H](O)[C@H]1O [SAH, S-adenosylhomocysteine]",deaminase activity on substrate,PaMTADA [8],inactive
"OC[C@H]1O[C@@H](n2cnc3c2NC=NC[C@H]3O)C[C@@H]1O [DCF, 2′-deoxycoformycin, reference compound]",Ki,PaMTADA [6],37 nM
"CCCSCC1OC(n2cnc3c2N=CNCC3O)CC1O (centres unmarked) [PrTDCF, 5′-propylthio-2′-deoxycoformycin]",Ki,PaMTADA [6],0.067 nM
same,binding to PaMTADA relative to MTDCF,PaMTADA [6]; times weaker than MTDCF,8 times
same,binding affinity for PfADA relative to CF,PfADA [9],150 times
same,Ki,Human ADA [5],> 10000 nM
Nc1nc2c(ncn2[C@@H]2O[C@H](CO)[C@@H](O)[C@H]2O)c(=O)[nH]1 [guanosine],deaminase activity on substrate,PaMTADA [8],inactive
"OC[C@H]1O[C@@H](n2cnc3c2N=CNC[C@H]3O)[C@H](O)[C@@H]1O [Coformycin (CF), Coformycin]",Ki,"PaMTADA [6]; equilibrium dissociation constant (Ki or Ki*), 25° C., pH 7.4, 100 μM MTA, read-out: PaMTADA Ki",90 ± 10 nM
Nc1ncnc2nc[nH]c12 [adenine],deaminase activity on substrate,PaMTADA [8],inactive
Nc1ncnc2c1ncn2[C@@H]1O[C@H](CO)[C@@H](O)[C@H]1O [adenosine],Km,PaMTADA [8]; [13],46 µM
same,kcat,PaMTADA [8]; [13],17 s⁻¹ and 17 ± 1 s⁻¹
same,Km,Human ADA [10],22 ± 3 µM
same,kcat,Human ADA [10],36 ± 1 s⁻¹
PaMTADA (Pseudomonas aeruginosa PAO1),Km,[11],1.5 µM
same,kcat,[11],24.6 ± 0.8 s⁻¹
same,kcat/Km,[11],160 ± 30 ×10^5 M^−1s^−1
"CSCC1OC(n2cnc3c2N=CNCC3O)CC1O (centres unmarked) [MTDCF, 5′-methylthio-2′-deoxycoformycin]",Ki,PaMTADA [6],0.008 nM
same,binding affinity for PfADA relative to CF,PfADA [9],9 times
same,Ki,PfADA [7]; [12],0.7 ± 0.2 nM
same,Ki,"PfADA [7]; from (15), read-out: PfADA Ki / equilibrium dissociation constant",0.7 nM
same,Ki,Human ADA [5],> 10000 nM
same,inhibitory effect on human ADA,Human ADA [5],no inhibitory effect

# Reference: US9522159B2, “Treatment and prevention of P. aeruginosa infections using coformycin analogs” (Albert Einstein College of Medicine, Inc., priority 2012, dated 2016)
